Assay results taken from the supplement of paper PMC10307832.

Assays:
Assay in all cases: relative viability (nuclei count vs DMSO), 5 days (fraction); higher = more cells survive
Avagacestat + OSI-027 = compound: NC(=O)[C@@H](CCC(F)(F)F)N(Cc1ccc(-c2ncon2)cc1F)S(=O)(=O)c1ccc(Cl)cc1 [Avagacestat] + COc1cccc2cc(-c3nc([C@H]4CC[C@H](C(=O)O)CC4)n4ncnc(N)c34)[nH]c12 [OSI-027] (partner 0.5 µM)
How it was run: (§1)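 Relative viability equals treated-well nuclei counts divided by vehicle-well nuclei counts. Counts came from 4× images of lung cancer cell lines grown in 1536-well plates for 5 days after pin-tool dosing on the day after seeding. Dosing used one drug alone or a fixed anchor-drug dose plus five library-drug doses (not always all listed) in √10 steps, and values are medians of duplicate plates.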

Avagacestat + Lapatinib = compound: NC(=O)[C@@H](CCC(F)(F)F)N(Cc1ccc(-c2ncon2)cc1F)S(=O)(=O)c1ccc(Cl)cc1 [Avagacestat] + CS(=O)(=O)CCNCc1ccc(-c2ccc3ncnc(Nc4ccc(OCc5cccc(F)c5)c(Cl)c4)c3c2)o1 [Lapatinib] (partner 2 µM)
How it was run: as §1

Avagacestat + Linsitinib = compound: NC(=O)[C@@H](CCC(F)(F)F)N(Cc1ccc(-c2ncon2)cc1F)S(=O)(=O)c1ccc(Cl)cc1 [Avagacestat] + C[C@]1(O)C[C@@H](c2nc(-c3ccc4ccc(-c5ccccc5)nc4c3)c3c(N)nccn32)C1 [Linsitinib] (partner 1 µM)
How it was run: as §1

Avagacestat + Alpelisib = compound: NC(=O)[C@@H](CCC(F)(F)F)N(Cc1ccc(-c2ncon2)cc1F)S(=O)(=O)c1ccc(Cl)cc1 [Avagacestat] + Cc1nc(NC(=O)N2CCC[C@H]2C(N)=O)sc1-c1ccnc(C(C)(C)C(F)(F)F)c1 [Alpelisib] (partner 2 µM)
How it was run: as §1

Cell Line	relative viability (Avagacestat + OSI-027; first compound 0.08 µM)	relative viability (Avagacestat + OSI-027; first compound 0.253 µM)	relative viability (Avagacestat + OSI-027; first compound 0.8 µM)	relative viability (Avagacestat + OSI-027; first compound 2.53 µM)	relative viability (Avagacestat + OSI-027; first compound 8 µM)	relative viability (Avagacestat + Lapatinib; first compound 0.08 µM)	relative viability (Avagacestat + Lapatinib; first compound 0.253 µM)	relative viability (Avagacestat + Lapatinib; first compound 0.8 µM)	relative viability (Avagacestat + Lapatinib; first compound 2.53 µM)	relative viability (Avagacestat + Lapatinib; first compound 8 µM)	relative viability (Avagacestat + Linsitinib; first compound 0.08 µM)	relative viability (Avagacestat + Linsitinib; first compound 0.253 µM)	relative viability (Avagacestat + Linsitinib; first compound 0.8 µM)	relative viability (Avagacestat + Linsitinib; first compound 2.53 µM)	relative viability (Avagacestat + Linsitinib; first compound 8 µM)	relative viability (Avagacestat + Alpelisib; first compound 0.08 µM)	relative viability (Avagacestat + Alpelisib; first compound 0.253 µM)	relative viability (Avagacestat + Alpelisib; first compound 0.8 µM)	relative viability (Avagacestat + Alpelisib; first compound 2.53 µM)	relative viability (Avagacestat + Alpelisib; first compound 8 µM)
NCI-H2347	0.506	0.352	0.398	0.366	0.369	0.997	0.966	1.04	0.923	0.909	1.04	0.989	1.02	0.943	0.897	1.15	1.08	1.12	0.957	1.02
NCI-H2405	0.628	0.638	0.603	0.571	0.516	1.02	1.12	1.21	0.958	1	0.873	0.852	1	0.627	0.737	0.717	0.742	0.735	0.583	0.625
NCI-H3122	1.09	1.24	1.21	–	1.07	1.1	1.1	1.03	1.05	0.99	1.05	1.02	0.989	1.01	1	0.903	0.966	0.802	0.813	0.739
PC-3 [JPC-3]	0.912	0.799	0.908	0.697	0.735	0.485	0.541	0.472	0.479	0.475	1.01	1.02	0.976	1.04	0.967	1.04	1.18	1.12	1.12	1.03
PC-14	1.19	0.888	0.749	0.599	0.74	0.336	0.329	0.476	0.236	0.315	1.11	1.07	1.09	1	0.855	0.9	1.05	0.975	1.06	0.587
RERF-LC-KJ	0.57	0.65	0.695	0.54	0.547	1.12	0.887	0.871	0.889	0.751	0.896	0.981	0.92	0.848	0.761	0.813	0.823	0.831	0.831	0.703
SK-LU-1	0.379	0.307	0.297	0.29	0.248	0.956	0.852	0.889	–	0.73	1.13	1.3	1.02	0.918	0.983	1.02	0.633	0.937	0.773	0.807
SK-MES-1	0.601	0.675	0.728	0.473	0.448	0.476	0.496	0.531	0.444	0.423	1.07	1.15	1.11	1.06	0.958	0.992	0.948	0.741	0.892	0.457
SW 1573	0.8	0.654	0.806	0.61	0.446	1.19	1.21	0.982	1.1	1.09	0.894	0.876	0.756	0.771	0.699	0.858	0.855	0.688	0.753	0.494
UMC-11	0.52	0.454	0.503	0.461	0.465	1.17	1	1.26	1.1	0.921	1.2	1.12	1.18	1.04	0.933	1.22	1.19	1.21	0.885	0.933
